Target: HCV NS3-4A serine protease (full-length NS3-4A protein) (Hepatitis C virus genotype 1a (isolate 1) (HCV), UniProt P26664)
Experiment: HCV NS3-4A protease assay
Format: biochemical, HCV genotype 1a
Settings: strain HCV-1, fluorogenic peptide substrate, read-out: Protease assay Ex. 12 IC50
Method: The inhibitory activity of certain compounds of Table A against HCV NS3-4A serine protease is determined in a homogenous assay using the full-length NS3-4A protein (genotype 1a, strain HCV-1) and a commercially available internally-quenched fluorogenic peptide substrate as described by Taliani, M., et al. 1996 Anal. Biochem. 240:60-67, which is incorporated by reference in its entirety.

Chain of HCV NS3-4A serine protease (full-length NS3-4A protein) (P26664 1027-1657): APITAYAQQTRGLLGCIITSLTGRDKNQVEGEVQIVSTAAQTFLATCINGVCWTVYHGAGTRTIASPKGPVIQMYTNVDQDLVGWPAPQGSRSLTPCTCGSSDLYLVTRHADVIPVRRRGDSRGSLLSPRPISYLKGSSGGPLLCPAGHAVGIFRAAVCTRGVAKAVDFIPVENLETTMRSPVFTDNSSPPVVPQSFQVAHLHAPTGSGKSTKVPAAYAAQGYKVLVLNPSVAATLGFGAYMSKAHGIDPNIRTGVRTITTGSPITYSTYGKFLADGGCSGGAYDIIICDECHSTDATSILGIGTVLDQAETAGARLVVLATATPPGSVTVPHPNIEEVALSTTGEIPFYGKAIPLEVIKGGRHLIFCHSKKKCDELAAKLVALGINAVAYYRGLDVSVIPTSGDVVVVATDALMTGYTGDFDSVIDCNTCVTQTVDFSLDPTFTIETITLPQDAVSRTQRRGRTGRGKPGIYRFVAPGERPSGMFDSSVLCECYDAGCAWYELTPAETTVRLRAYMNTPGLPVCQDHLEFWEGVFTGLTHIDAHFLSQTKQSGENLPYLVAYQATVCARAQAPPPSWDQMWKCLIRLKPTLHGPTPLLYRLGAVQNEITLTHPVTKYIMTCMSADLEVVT
Chain of HCV NS3-4A serine protease (full-length NS3-4A protein) (P26664 1658-1711 partner): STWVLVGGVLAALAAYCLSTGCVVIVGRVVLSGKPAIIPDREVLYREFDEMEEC

Row | SMILES | IC50
1 | C=C[C@@H]1C[C@]1(NC(=O)[C@@H]1C[C@@]2(CN1C(=O)[C@@H](NC(=O)[C@@H](NC(=O)c1cnon1)C1CCCCC1)C(C)(C)C)C(C)(C)C21CCC1)C(=O)NS(=O)(=O)N1CCCC1 [Compound 201, (5R,8S)-7-[(2S)-2-({cyclohexyl[(1,2,5-oxadiazol-3-ylcarbonyl)amino]acetyl}amino)-3,3-dimethylbutanoyl]-10,10-dimethyl-N-{(1R,2S)-1-[(pyrrolidin-1-ylsulfonyl)carbamoyl]-2-vinylcyclopropyl}-7-azadispiro[3.0.4.1]decane-8-carboxamide] | 0.035 µM
2 | C=C[C@@H]1C[C@]1(NC(=O)[C@@H]1C[C@@]2(CN1C(=O)[C@@H](NC(=O)[C@@H](NC(=O)[C@@H]1CCCCN1C(C)C)C(C)(C)C)C(C)(C)C)C(C)(C)C21CCC1)C(=O)NS(=O)(=O)N1CCCC1 [Compound 3, (5R,8S)-7-[(2S)-2-{[(2S)-2-({[(2S)-1-isopropylpiperidin-2-yl]carbonyl}amino)-3,3-dimethylbutanoyl]amino}-3,3-dimethylbutanoyl]-10,10-dimethyl-N-{(1R,2S)-1-[(pyrrolidin-1-ylsulfonyl)carbamoyl]-2-vinylcyclopropyl}-7-azadispiro[3.0.4.1]decane-8-carboxamide] | 0.006 µM
3 | CC[C@@H]1C[C@]1(NC(=O)[C@@H]1C[C@@]2(CN1C(=O)[C@@H](NC(=O)[C@@H](NC(=O)[C@H]1CCCCN1C(C)C)C1CCCCC1)C(C)(C)C)C(C)(C)C21CCC1)C(=O)NS(=O)(=O)N(CC)CC [Compound 121, (5R,8S)-7-[(2S)-2-{[(2S)-2-cyclohexyl-2-({[(2R)-1-isopropylpiperidin-2-yl]carbonyl}amino)acetyl]amino}-3,3-dimethylbutanoyl]-N-[(1R,2R)-1-{[(diethylamino)sulfonyl]carbamoyl}-2-ethylcyclopropyl]-10,10-dimethyl-7-azadispiro[3.0.4.1]decane-8-carboxamide] | 0.007 µM
4 | C=C[C@@H]1C[C@]1(NC(=O)[C@@H]1C[C@@]2(CN1C(=O)[C@@H](NC(=O)[C@@H](NC(=O)[C@H]1CCCCN1C(C)C)C1CCCCC1)C(C)(C)C)C(C)(C)C21CCC1)C(=O)NS(=O)(=O)N1CCCC1 [Compound 47, (5R,8S)-7-[(2S)-2-{[(2S)-2-cyclohexyl-2-({[(2R)-1-isopropylpiperidin-2-yl]carbonyl}amino)acetyl]amino}-3,3-dimethylbutanoyl]-10,10-dimethyl-N-{(1R,2S)-1-[(pyrrolidin-1-ylsulfonyl)carbamoyl]-2-vinylcyclopropyl}-7-azadispiro[3.0.4.1]decane-8-carboxamide] | 0.0048 µM
5 | CC[C@@H]1C[C@]1(NC(=O)[C@@H]1C[C@@]2(CN1C(=O)[C@@H](NC(=O)[C@@H](NC(=O)[C@@H]1CCCCN1C(C)C)C(C)(C)C)C(C)(C)C)C(C)(C)C21CCC1)C(=O)NS(=O)(=O)N1CCCC1 [Compound 30, (5R,8S)-N-{(1R,2R)-2-ethyl-1-[(pyrrolidin-1-ylsulfonyl)carbamoyl]cyclopropyl}-7-[(2S)-2-{[(2S)-2-({[(2S)-1-isopropylpiperidin-2-yl]carbonyl}amino)-3,3-dimethylbutanoyl]amino}-3,3-dimethylbutanoyl]-10,10-dimethyl-7-azadispiro[3.0.4.1]decane-8-carboxamide] | 0.062 µM
6 | C=C[C@@H]1C[C@]1(NC(=O)[C@@H]1C[C@@]2(CN1C(=O)[C@@H](NC(=O)[C@@H](NC(=O)[C@@H]1CCCCN1C(C)C)C1CCCCC1)C1(C)CCOCC1)C(C)(C)C21CCC1)C(=O)NS(=O)(=O)N1CCCC1 [Compound 124, (5R,8S)-7-[(2S)-2-{[(2S)-2-cyclohexyl-2-({[(2S)-1-isopropylpiperidin-2-yl]carbonyl}amino)acetyl]amino}-2-(4-methyltetrahydro-2H-pyran-4-yl)acetyl]-10,10-dimethyl-N-{(1R,2S)-1-[(pyrrolidin-1-ylsulfonyl)carbamoyl]-2-vinylcyclopropyl}-7-azadispiro[3.0.4.1]decane-8-carboxamide] | 0.0015 µM
7 | C=C[C@@H]1C[C@]1(NC(=O)[C@@H]1C[C@@]2(CN1C(=O)[C@@H](NC(=O)[C@@H](NC(=O)[C@@H]1CCCCN1CC(F)F)C1CCCCC1)C1CCOCC1)C(C)(C)C21CCC1)C(=O)NS(=O)(=O)N1CCCC1 [Compound 74, (5R,8S)-7-[(2S)-2-{[(2S)-2-cyclohexyl-2-({[(2S)-1-(2,2-difluoroethyl)piperidin-2-yl]carbonyl}amino)acetyl]amino}-2-(tetrahydro-2H-pyran-4-yl)acetyl]-10,10-dimethyl-N-{(1R,2S)-1-[(pyrrolidin-1-ylsulfonyl)carbamoyl]-2-vinylcyclopropyl}-7-azadispiro[3.0.4.1]decane-8-carboxamide] | 0.065 µM
8 | C=C[C@@H]1C[C@]1(NC(=O)[C@@H]1C[C@@]2(CN1C(=O)[C@@H](NC(=O)[C@@H](NC(=O)c1cnc3ccccc3c1)C1CCCCC1)C(C)(C)C)C(C)(C)C21CCC1)C(=O)NS(=O)(=O)N1CCCC1 [Compound 196, (5R,8S)-7-[(2S)-2-({cyclohexyl[(quinolin-3-ylcarbonyl)amino]acetyl}amino)-3,3-dimethylbutanoyl]-10,10-dimethyl-N-{(1R,2S)-1-[(pyrrolidin-1-ylsulfonyl)carbamoyl]-2-vinylcyclopropyl}-7-azadispiro[3.0.4.1]decane-8-carboxamide] | 0.02 µM
9 | C=C[C@@H]1C[C@]1(NC(=O)[C@@H]1C[C@@]2(CN1C(=O)[C@@H](NC(=O)[C@@H](NC(=O)c1cc(CC)nn1C)C1CCCCC1)C(C)(C)C)C(C)(C)C21CCC1)C(=O)NS(=O)(=O)N1CCCC1 [Compound 185, (5R,8S)-7-{(2S)-2-[(cyclohexyl{[(3-ethyl-1-methyl-1H-pyrazol-5-yl)carbonyl]amino}acetyl)amino]-3,3-dimethylbutanoyl}-10,10-dimethyl-N-{(1R,2S)-1-[(pyrrolidin-1-ylsulfonyl)carbamoyl]-2-vinylcyclopropyl}-7-azadispiro[3.0.4.1]decane-8-carboxamide] | 0.04 µM
10 | C=C[C@@H]1C[C@]1(NC(=O)[C@@H]1C[C@@]2(CN1C(=O)[C@@H](NC(=O)[C@@H](NC(=O)[C@@H]1CCCN1CC)C1(C)CCCCC1)C(C)(C)C)C(C)(C)C21CCC1)C(=O)NS(=O)(=O)N(CC)CC [Compound 134, (5R,8S)-N-[(1R,2S)-1-{[(diethylamino)sulfonyl]carbamoyl}-2-vinylcyclopropyl]-7-[(2S)-2-{[(2S)-2-({[(2S)-1-ethylpyrrolidin-2-yl]carbonyl}amino)-2-(1-methylcyclohexyl)acetyl]amino}-3,3-dimethylbutanoyl]-10,10-dimethyl-7-azadispiro[3.0.4.1]decane-8-carboxamide] | 0.005 µM
11 | C=C[C@@H]1C[C@]1(NC(=O)[C@@H]1C[C@@]2(CN1C(=O)[C@@H](NC(=O)[C@@H](NC(=O)[C@@H]1CCCCN1CCF)C1CCCCC1)C(C)(C)C)C(C)(C)C21CCC1)C(=O)NS(=O)(=O)N1CCCC1 [Compound 26, (5R,8S)-7-[(2S)-2-{[(2S)-2-cyclohexyl-2-({[(2S)-1-(2-fluoroethyl)piperidin-2-yl]carbonyl}amino)acetyl]amino}-3,3-dimethylbutanoyl]-10,10-dimethyl-N-{(1R,2S)-1-[(pyrrolidin-1-ylsulfonyl)carbamoyl]-2-vinylcyclopropyl}-7-azadispiro[3.0.4.1]decane-8-carboxamide] | 0.015 µM

Source: patent US8613914B2, “Peptidomimetic sulfamide compounds and antiviral uses thereof” (Novartis AG, priority 2009, dated 2013)
